Measured values taken from article PMC11190158, “Study on the design, synthesis, and activity of anti-tumor staple peptides targeting MDM2/MDMX” (Frontiers in Chemistry, 2024).
Converted amounts (≈) assume the structure as drawn. “Also recorded” adds a separate entry of the source. Positions of bridges follow the written chain, without caps; N, C: chain ends. Non-standard residues stand in square brackets, D forms with d. Residues, ends and D or L forms follow the SMILES beside them. S5 = C=CCCC[C@](C)(N)C(=O)O

Key:
circular dichroism = conditions: phosphate buffer (PB); pH 7.2; ns °C; 10-50 (printed mmol/L, probably uM)
[1] = Circular dichroism, degree of helicity; format: physicochemical; conditions: CD, PB pH 7.2, 10–50 mmol/L peptide, ambient temperature, 1-mm path length, 185–255 nm
Experimental: The staple peptides were soluble in PB with a pH of 7.2 at a concentration of 10–50 mmol/L. CD experiments were performed using a Jasco J-715 Spectropolarimeter at ambient temperature. A quartz cuvette with a 1-mm path length was used for the spectrum collection (wavelength, 185–255 nm; step resolution, 0.0001 mm; speed, 1.2 μm/h; accumulations, 6; and bandwidth, 0.0001 mm). We calculated the helicity of each peptide using Eq.

HCT116 p53^+/+ = conditions: 72 h
tumor cells = assay: Cytotoxicity / cell viability assay (CCK-8), cell line not given; format: cell-based, human
Experimental: Human colon cancer cell lines HCT116 p53^+/+, HCT116 p53^−/−, U87 MG, and U251 were maintained in McCoy’s 5A Medium supplemented with 10% heat-inactivated FCS and 1% penicillin–streptomycin at 37°C, 5% CO2, and under complete humidification conditions. The cells (3×10^3 cells/well) were inoculated in 96-well plates and treated with different concentrations of polypeptides for 72 h. The absorbance at 450 nm was then measured using the CCK-8 Kit, and the percentage of cell survival was calculated based on the ratio of the sample well to the reference well A450.

HCT116 p53^−/− = conditions: 72 h
U87 MG [2] = conditions: 72 h
U251 [3] = assay: Apoptosis assay (Annexin V/PI, flow cytometry); format: cell-based, human; set-up: LR / UR / LR+UR: unit not given here; conditions: for LR+UR: total apoptosis
Experimental: (§1) Fluorescent probes were used to detect normal viable cells, apoptotic cells, and necrotic cells by double labeling of cells, and the morphological characteristics of the apoptotic cells were explored. A Petri dish with 8–90% confluence was taken from the incubator. Tumor cells were collected, and the cells were counted under the microscope through the cell slide. A cell suspension of the appropriate concentration was prepared. Different concentrations of peptide samples were added according to the experimental group. Three compound wells were set up in each group; the control group was set up without peptides, and the blank group was set up without cells. Then, 300 μL of Binding Buffer was added after 24 h of dosing, and 2 μL of Annexin V was added to each tube, pipetted to mix it well, and then incubated at room temperature in the dark for 15 min. Then, 2 μL of PI solution was added before placing it on the machine, and one tube without dye was used as a negative control. On-machine assays were performed with flow cytometry. […] Total apoptosis = LR region + UR region.

U87 MG [4] = assay: Apoptosis assay (Annexin V/PI, flow cytometry); format: cell-based, human; set-up: LR / UR / LR+UR: unit not given here; conditions: for LR+UR: total apoptosis
Experimental: as §1, with “Then, 300 μL of Binding Buffer was added after 24 h of dosing, and 2 μL of Annexin V was added to each tube, pipetted to mix it well, and then incubated at room temperature in the dark for 15 min.” left out

U251 [5] = assay: Apoptosis assay (Annexin V/PI, flow cytometry); format: cell-based, human; conditions: U251, 20 μM, 36 h (legend; method 24 h), mean
U251 [6] = conditions: 72 h
MDMX = tested on: MDMX; set-up: method as in 2 sources, one per row (each row's own in cited_ref): ref Zhan and Lu, 2011; Brown et al., 2013; Wade et al., 2013 ||| ref Zhan et al., 2012a; Zhan et al., 2012b; Li et al., 2021; conditions: in words, surface plasmon resonance and fluorescence polarization, ref Zhan et al., 2012a, 2012b, Li et al., 2021; cited from earlier work
MDM2 = tested on: MDM2; set-up: method as in 2 sources, one per row (each row's own in cited_ref): ref Zhan and Lu, 2011; Brown et al., 2013; Wade et al., 2013 ||| ref Zhan et al., 2012a; Zhan et al., 2012b; Li et al., 2021; conditions: in words, surface plasmon resonance and fluorescence polarization, ref Zhan et al., 2012a, 2012b, Li et al., 2021; cited from earlier work
[7] = U251, 5 μM, sample 9 (replicate 1)
[8] = U251, 5 μM, sample 10 (replicate 2)
[9] = U251, 10 μM, sample 11 (replicate 1)
[10] = U251, 10 μM, sample 12 (replicate 2)
[11] = U251, 20 μM, sample 13 (replicate 1)
[12] = U251, 20 μM, sample 14 (replicate 2)
[13] = 20 μM, 36 h (legend; method 24 h), Annexin V/PI, mean

Compound: CSCC[C@H](NC(=O)[C@H](CC(C)C)NC(=O)[C@]1(C)CCCC=CCCC[C@](C)(NC(=O)[C@H](CC(C)C)NC(=O)[C@H](Cc2ccccc2)NC(=O)[C@@H](NC(=O)[C@H](CC(C)C)NC(=O)[C@H](CCCCN)NC(C)=O)[C@@H](C)O)C(=O)N[C@@H](Cc2ccc(O)cc2)C(=O)N[C@@H](Cc2c[nH]c3ccccc23)C(=O)N[C@@H](C)C(=O)N1)C(=O)N[C@@H](CCC(N)=O)C(=O)N[C@@H](CCCCN)C(N)=O [SM3-4] (Ac-KLTFL[S5]YWA[S5]LMQK-NH2; staple 6-10)
- helicity (circular dichroism): 29%
- helicity [1]: 28.96%
- IC50 (HCT116 p53^+/+): 77.5 µM
- anti-proliferative / tumor suppressive activity (in words) (tumor cells; HCT116 p53^+/+, HCT116 p53−/−, U87 and U251 cell viability experiments, versus template straight-chain peptide): significantly improved; also recorded: strongest anti-proliferative activity
- concentration at which in vitro anti-tumor activity was exhibited (tumor cells; compared to linear peptide M3-1, cell line not named): 25 µM
- IC50 (HCT116 p53^−/−): 33.2 µM
- IC50 (U87 MG [2]): 7.84 µM
- minimum inhibitory concentration (U87 MG [2]): 8 µM (≈ 14.7 µg/mL)
- LR (U251 [3]; [7]): 0.89
- UR (U251 [3]; [7]): 2.73
- LR+UR (U251 [3]; [7]): 3.62
- LR (U251 [3]; [8]): 0.47
- UR (U251 [3]; [8]): 1.92
- LR+UR (U251 [3]; [8]): 2.39
- LR (U251 [3]; [9]): 1.47
- UR (U251 [3]; [9]): 1.92
- LR+UR (U251 [3]; [9]): 3.39
- LR (U251 [3]; [10]): 1.12
- UR (U251 [3]; [10]): 1.94
- LR+UR (U251 [3]; [10]): 3.06
- LR (U251 [3]; [11]): 6.85
- UR (U251 [3]; [11]): 8.8
- LR+UR (U251 [3]; [11]): 15.65
- LR (U251 [3]; [12]): 4.92
- UR (U251 [3]; [12]): 13.66
- LR+UR (U251 [3]; [12]): 18.58
- apoptotic effect (in words) (U251 [3]; U251, 5, 10 and 20 μM): significant apoptotic effect
- LR (U87 MG [4]; 5 μM, sample 1 (replicate 1)): 1.25
- UR (U87 MG [4]; 5 μM, sample 1 (replicate 1)): 3.07
- LR+UR (U87 MG [4]; 5 μM, sample 1 (replicate 1)): 4.32
- LR (U87 MG [4]; 5 μM, sample 2 (replicate 2)): 1.04
- UR (U87 MG [4]; 5 μM, sample 2 (replicate 2)): 3.27
- LR+UR (U87 MG [4]; 5 μM, sample 2 (replicate 2)): 4.31
- LR (U87 MG [4]; 10 μM, sample 3 (replicate 1)): 1.11
- UR (U87 MG [4]; 10 μM, sample 3 (replicate 1)): 6.12
- LR+UR (U87 MG [4]; 10 μM, sample 3 (replicate 1)): 7.23
- LR (U87 MG [4]; 10 μM, sample 4 (replicate 2)): 2.02
- UR (U87 MG [4]; 10 μM, sample 4 (replicate 2)): 3.16
- LR+UR (U87 MG [4]; 10 μM, sample 4 (replicate 2)): 5.18
- LR: apoptotic cells (U87 MG [4]; [13]): 29.91%
- UR: dead cells (U87 MG [4]; [13]): 42.285%
- LR (U87 MG [4]; 20 μM, sample 5 (replicate 1)): 26.96
- UR (U87 MG [4]; 20 μM, sample 5 (replicate 1)): 37.58
- LR+UR (U87 MG [4]; 20 μM, sample 5 (replicate 1)): 64.54
- LR (U87 MG [4]; 20 μM, sample 6 (replicate 2)): 32.86
- UR (U87 MG [4]; 20 μM, sample 6 (replicate 2)): 46.99
- LR+UR (U87 MG [4]; 20 μM, sample 6 (replicate 2)): 79.85
- apoptotic effect (in words) (U87 MG [4]; 5, 10 and 20 μM): significant apoptotic effect
- LR: apoptotic cells (U251 [5]): 5.885%
- UR: dead cells (U251 [5]): 11.23%
- IC50 (U251 [6]): 14.7 µM
- minimum inhibitory concentration (U251 [6]): 16 µM (≈ 29.3 µg/mL)

Compound: LTFLEYWAQLMQ [PMI-M3]
- binding to MDMX (MDMX): binds well
- binding to MDM2 (MDM2): binds well
